Experimental data from the supplement of paper PMC10307832.

Tests used:
Assay in all cases: relative viability (nuclei count vs DMSO), 5 days (fraction); higher = more cells survive
FH535 = compound: CC1=C(C=CC(=C1)[N+](=O)[O-])NS(=O)(=O)C2=C(C=CC(=C2)Cl)Cl [FH535]
How it was run: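 Nuclei counted with MetaXpress define viability as the ratio of treated to vehicle wells, given as a median across plates. The lung cancer cell lines were in 1536-well plates, pinned with five √10-spaced library-drug doses and imaged at 4× after 5 days and Hoechst staining. Plates passed with control CV below 25% and at least one doubling.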

FH535 + Luminespib = compound: CC1=C(C=CC(=C1)[N+](=O)[O-])NS(=O)(=O)C2=C(C=CC(=C2)Cl)Cl [FH535] + CCNC(=O)c1noc(-c2cc(C(C)C)c(O)cc2O)c1-c1ccc(CN2CCOCC2)cc1 [Luminespib] (partner 0.01 µM)
How it was run: (§1)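 After 5 days of treatment, lung cancer cells in 1536-well plates were fixed and stained in a single step (final 0.05% Triton X-100, 1% formaldehyde, 1 ug/ml Hoechst) and their nuclei counted on 4× images. Treatment had been applied by pin tool the day after seeding as one drug alone or as a fixed anchor-drug dose with five library-drug doses (not always all listed) in √10 steps. Relative viability is the nuclei count of treated wells divided by that of vehicle wells, and values are medians of duplicate plates.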

FH535 + Foretinib = compound: CC1=C(C=CC(=C1)[N+](=O)[O-])NS(=O)(=O)C2=C(C=CC(=C2)Cl)Cl [FH535] + COc1cc2c(Oc3ccc(NC(=O)C4(C(=O)Nc5ccc(F)cc5)CC4)cc3F)ccnc2cc1OCCCN1CCOCC1 [Foretinib] (partner 0.25 µM)
How it was run: as §1

FH535 + OSI-027 = compound: CC1=C(C=CC(=C1)[N+](=O)[O-])NS(=O)(=O)C2=C(C=CC(=C2)Cl)Cl [FH535] + COc1cccc2cc(-c3nc([C@H]4CC[C@H](C(=O)O)CC4)n4ncnc(N)c34)[nH]c12 [OSI-027] (partner 0.5 µM)
How it was run: as §1

FH535 + Tozasertib = compound: CC1=C(C=CC(=C1)[N+](=O)[O-])NS(=O)(=O)C2=C(C=CC(=C2)Cl)Cl [FH535] + Cc1cc(Nc2cc(N3CCN(C)CC3)nc(Sc3ccc(NC(=O)C4CC4)cc3)n2)n[nH]1 [Tozasertib] (partner 0.1 µM)
How it was run: as §1

FH535 + Dasatinib = compound: CC1=C(C=CC(=C1)[N+](=O)[O-])NS(=O)(=O)C2=C(C=CC(=C2)Cl)Cl [FH535] + Cc1nc(Nc2ncc(C(=O)Nc3c(C)cccc3Cl)s2)cc(N2CCN(CCO)CC2)n1 [Dasatinib] (partner 0.075 µM)
How it was run: as §1

FH535 + Phenformin = compound: CC1=C(C=CC(=C1)[N+](=O)[O-])NS(=O)(=O)C2=C(C=CC(=C2)Cl)Cl [FH535] + N=C(N)NC(=N)NCCc1ccccc1 [Phenformin] (partner 250 µM)
How it was run: as §1

FH535 + Trametinib = compound: CC1=C(C=CC(=C1)[N+](=O)[O-])NS(=O)(=O)C2=C(C=CC(=C2)Cl)Cl [FH535] + CC(=O)Nc1cccc(-n2c(=O)n(C3CC3)c(=O)c3c(Nc4ccc(I)cc4F)n(C)c(=O)c(C)c32)c1 [Trametinib] (partner 0.02 µM)
How it was run: as §1

FH535 + Palbociclib = compound: CC1=C(C=CC(=C1)[N+](=O)[O-])NS(=O)(=O)C2=C(C=CC(=C2)Cl)Cl [FH535] + CC(=O)c1c(C)c2cnc(Nc3ccc(N4CCNCC4)cn3)nc2n(C2CCCC2)c1=O [Palbociclib] (partner 0.5 µM)
How it was run: as §1

FH535 + AZD7762 = compound: CC1=C(C=CC(=C1)[N+](=O)[O-])NS(=O)(=O)C2=C(C=CC(=C2)Cl)Cl [FH535] + NC(=O)Nc1cc(-c2cccc(F)c2)sc1C(=O)N[C@H]1CCCNC1 [AZD7762] (partner 0.2 µM)
How it was run: as §1

FH535 + Pemetrexed = compound: CC1=C(C=CC(=C1)[N+](=O)[O-])NS(=O)(=O)C2=C(C=CC(=C2)Cl)Cl [FH535] + Nc1nc2[nH]cc(CCc3ccc(C(=O)N[C@@H](CCC(=O)O)C(=O)O)cc3)c2c(=O)[nH]1 [Pemetrexed] (partner 0.2 µM)
How it was run: as §1

FH535 + Decitabine = compound: CC1=C(C=CC(=C1)[N+](=O)[O-])NS(=O)(=O)C2=C(C=CC(=C2)Cl)Cl [FH535] + Nc1ncn([C@H]2C[C@H](O)[C@@H](CO)O2)c(=O)n1 [Decitabine] (partner 2 µM)
How it was run: as §1

FH535 + Vorinostat = compound: CC1=C(C=CC(=C1)[N+](=O)[O-])NS(=O)(=O)C2=C(C=CC(=C2)Cl)Cl [FH535] + O=C(CCCCCCC(=O)Nc1ccccc1)NO [Vorinostat] (partner 1 µM)
How it was run: as §1

FH535 + Olaparib = compound: CC1=C(C=CC(=C1)[N+](=O)[O-])NS(=O)(=O)C2=C(C=CC(=C2)Cl)Cl [FH535] + O=C(c1cc(Cc2n[nH]c(=O)c3ccccc23)ccc1F)N1CCN(C(=O)C2CC2)CC1 [Olaparib] (partner 8 µM)
How it was run: as §1

Cell Line: NCI-H1623
- relative viability (FH535; 0.04 µM): 1.02
- relative viability (FH535; 0.1265 µM): 0.948
- relative viability (FH535; 0.4 µM): 0.991
- relative viability (FH535; 1.265 µM): 0.912
- relative viability (FH535 + Luminespib; first compound 0.04 µM): 0.609
- relative viability (FH535 + Luminespib; first compound 0.1265 µM): 0.574
- relative viability (FH535 + Luminespib; first compound 0.4 µM): 0.513
- relative viability (FH535 + Luminespib; first compound 1.265 µM): 0.509
- relative viability (FH535 + Foretinib; first compound 0.04 µM): 0.816
- relative viability (FH535 + Foretinib; first compound 0.1265 µM): 0.855
- relative viability (FH535 + Foretinib; first compound 0.4 µM): 0.823
- relative viability (FH535 + Foretinib; first compound 1.265 µM): 0.777
- relative viability (FH535 + OSI-027; first compound 0.04 µM): 0.424
- relative viability (FH535 + OSI-027; first compound 0.1265 µM): 0.525
- relative viability (FH535 + OSI-027; first compound 0.4 µM): 0.451
- relative viability (FH535 + OSI-027; first compound 1.265 µM): 0.413
- relative viability (FH535 + Tozasertib; first compound 0.04 µM): 0.391
- relative viability (FH535 + Tozasertib; first compound 0.1265 µM): 0.426
- relative viability (FH535 + Tozasertib; first compound 0.4 µM): 0.426
- relative viability (FH535 + Tozasertib; first compound 1.265 µM): 0.45
- relative viability (FH535 + Dasatinib; first compound 0.04 µM): 0.515
- relative viability (FH535 + Dasatinib; first compound 0.1265 µM): 0.468
- relative viability (FH535 + Dasatinib; first compound 0.4 µM): 0.508
- relative viability (FH535 + Dasatinib; first compound 1.265 µM): 0.478
- relative viability (FH535 + Phenformin; first compound 0.04 µM): 0.551
- relative viability (FH535 + Phenformin; first compound 0.1265 µM): 0.523
- relative viability (FH535 + Phenformin; first compound 0.4 µM): 0.495
- relative viability (FH535 + Phenformin; first compound 1.265 µM): 0.468

Cell Line: NCI-H1648
- relative viability (FH535; 0.04 µM): 0.645
- relative viability (FH535; 0.1265 µM): 0.828
- relative viability (FH535; 0.4 µM): 0.837
- relative viability (FH535; 1.265 µM): 0.641
- relative viability (FH535 + Trametinib; first compound 0.1265 µM): 0.441
- relative viability (FH535 + Trametinib; first compound 0.4 µM): 0.544
- relative viability (FH535 + Trametinib; first compound 1.265 µM): 0.352
- relative viability (FH535 + Palbociclib; first compound 0.1265 µM): 0.219
- relative viability (FH535 + Palbociclib; first compound 0.4 µM): 0.273
- relative viability (FH535 + Palbociclib; first compound 1.265 µM): 0.225
- relative viability (FH535 + OSI-027; first compound 0.04 µM): 0.243
- relative viability (FH535 + OSI-027; first compound 0.4 µM): 0.254
- relative viability (FH535 + OSI-027; first compound 1.265 µM): 0.243
- relative viability (FH535 + Tozasertib; first compound 0.04 µM): 0.397
- relative viability (FH535 + Tozasertib; first compound 0.4 µM): 0.603
- relative viability (FH535 + Tozasertib; first compound 1.265 µM): 0.281
- relative viability (FH535 + AZD7762; first compound 0.1265 µM): 0.654
- relative viability (FH535 + AZD7762; first compound 0.4 µM): 0.612
- relative viability (FH535 + AZD7762; first compound 1.265 µM): 0.625
- relative viability (FH535 + Pemetrexed; first compound 0.1265 µM): 0.655
- relative viability (FH535 + Pemetrexed; first compound 0.4 µM): 0.532
- relative viability (FH535 + Pemetrexed; first compound 1.265 µM): 0.635
- relative viability (FH535 + Decitabine; first compound 0.1265 µM): 0.585
- relative viability (FH535 + Decitabine; first compound 0.4 µM): 0.478
- relative viability (FH535 + Decitabine; first compound 1.265 µM): 0.398
- relative viability (FH535 + Vorinostat; first compound 0.1265 µM): 0.595
- relative viability (FH535 + Vorinostat; first compound 0.4 µM): 0.709
- relative viability (FH535 + Vorinostat; first compound 1.265 µM): 0.473
- relative viability (FH535 + Olaparib; first compound 0.1265 µM): 0.888
- relative viability (FH535 + Olaparib; first compound 0.4 µM): 1.08
- relative viability (FH535 + Olaparib; first compound 1.265 µM): 0.383

Cell Line: NCI-H2342
- relative viability (FH535; 0.04 µM): 0.96
- relative viability (FH535; 0.1265 µM): 0.964
- relative viability (FH535; 0.4 µM): 1.01
- relative viability (FH535; 1.265 µM): 0.76
- relative viability (FH535 + Trametinib; first compound 0.04 µM): 0.794
- relative viability (FH535 + Trametinib; first compound 0.1265 µM): 0.823
- relative viability (FH535 + Trametinib; first compound 0.4 µM): 0.9
- relative viability (FH535 + Trametinib; first compound 1.265 µM): 0.842
- relative viability (FH535 + Palbociclib; first compound 0.04 µM): 0.524
- relative viability (FH535 + Palbociclib; first compound 0.1265 µM): 0.533
- relative viability (FH535 + Palbociclib; first compound 0.4 µM): 0.567
- relative viability (FH535 + Palbociclib; first compound 1.265 µM): 0.581
- relative viability (FH535 + Luminespib; first compound 0.04 µM): 0.738
- relative viability (FH535 + Luminespib; first compound 0.1265 µM): 0.713
- relative viability (FH535 + Luminespib; first compound 0.4 µM): 0.705
- relative viability (FH535 + Luminespib; first compound 1.265 µM): 0.6
- relative viability (FH535 + Foretinib; first compound 0.04 µM): 1.19
- relative viability (FH535 + Foretinib; first compound 0.1265 µM): 1.09
- relative viability (FH535 + Foretinib; first compound 0.4 µM): 1.04
- relative viability (FH535 + Foretinib; first compound 1.265 µM): 0.792
- relative viability (FH535 + OSI-027; first compound 0.04 µM): 0.516
- relative viability (FH535 + OSI-027; first compound 0.1265 µM): 0.593
- relative viability (FH535 + OSI-027; first compound 0.4 µM): 0.641
- relative viability (FH535 + OSI-027; first compound 1.265 µM): 0.567
- relative viability (FH535 + Tozasertib; first compound 0.04 µM): 0.541
- relative viability (FH535 + Tozasertib; first compound 0.1265 µM): 0.564
- relative viability (FH535 + Tozasertib; first compound 0.4 µM): 0.445
- relative viability (FH535 + Tozasertib; first compound 1.265 µM): 0.454
- relative viability (FH535 + Dasatinib; first compound 0.04 µM): 0.305
- relative viability (FH535 + Dasatinib; first compound 0.1265 µM): 0.339
- relative viability (FH535 + Dasatinib; first compound 0.4 µM): 0.281
- relative viability (FH535 + Dasatinib; first compound 1.265 µM): 0.297
- relative viability (FH535 + Phenformin; first compound 0.04 µM): 0.559
- relative viability (FH535 + Phenformin; first compound 0.1265 µM): 0.602
- relative viability (FH535 + Phenformin; first compound 0.4 µM): 0.611
- relative viability (FH535 + Phenformin; first compound 1.265 µM): 0.437
- relative viability (FH535 + AZD7762; first compound 0.04 µM): 0.491
- relative viability (FH535 + AZD7762; first compound 0.1265 µM): 0.482
- relative viability (FH535 + AZD7762; first compound 0.4 µM): 0.482
- relative viability (FH535 + AZD7762; first compound 1.265 µM): 0.354
- relative viability (FH535 + Pemetrexed; first compound 0.04 µM): 0.772
- relative viability (FH535 + Pemetrexed; first compound 0.1265 µM): 0.748
- relative viability (FH535 + Pemetrexed; first compound 0.4 µM): 0.812
- relative viability (FH535 + Pemetrexed; first compound 1.265 µM): 0.634
- relative viability (FH535 + Decitabine; first compound 0.04 µM): 0.706
- relative viability (FH535 + Decitabine; first compound 0.1265 µM): 0.632
- relative viability (FH535 + Decitabine; first compound 0.4 µM): 0.736
- relative viability (FH535 + Decitabine; first compound 1.265 µM): 0.568
- relative viability (FH535 + Vorinostat; first compound 0.04 µM): 0.674
- relative viability (FH535 + Vorinostat; first compound 0.1265 µM): 0.725
- relative viability (FH535 + Vorinostat; first compound 0.4 µM): 0.87
- relative viability (FH535 + Vorinostat; first compound 1.265 µM): 0.721
- relative viability (FH535 + Olaparib; first compound 0.04 µM): 0.471
- relative viability (FH535 + Olaparib; first compound 0.1265 µM): 0.487
- relative viability (FH535 + Olaparib; first compound 0.4 µM): 0.434
- relative viability (FH535 + Olaparib; first compound 1.265 µM): 0.363
